The values below come from US20220098197A1, “SALTS OF HETEROCYCLIC COMPOUND AND USE THEREOF” (priority 2019, published 2022).

In one experiment the test system is RAW 264.7 macrophages. Kind of experiment: In vitro cytokines assay via ELISA, CSE- and PGD2-stimulated macrophages. Format: cell-based, mouse. To be noted: CT-NA 10 and 100 μM, p<0.01. The protocol:
The cigarette smoke generated from 3R4F research grade cigarettes was passed through 50 ml PBS by a vacuum pump. Five cigarettes were used to make smoke that passed 50 ml PBS, and each cigarette was lit for 5 minutes. The control solution was prepared in the absence of cigarettes by using a similar method. After extraction, CSE was stored at −80° C.
RAW 264.7 macrophages were added to two 12-well plates. Thereafter, the medium of the 12-well plate was replaced with serum-free RPMI-1640 medium, and the macrophages were incubated for 10-12 hrs and then exposed to CT-NA (10 and 100 μM) for 1 hour. One hour later, one 12-well plate was treated with CSE (4%) and the other with PGD2 (10 μM) for 24 hrs. After the treatment, the supernatant of the treated cells was collected to measure the protein levels of TNF-α, IL-1β, IL-6, KC and IL-10 extracellularly secreted using ELISA kits according to the method of the instructions. Subsequently, RNA samples from each treated plate were extracted and reverse-transcripted into cDNA with HiScript5xQRTSuperMix, and then subjected to RT-PCR. RT-PCR was performed with the BioRad CFX96 Touch™ Real-Time PCR Detection System (BioRad, USA) using AceQ® qPCR SYBR Green Master Mix. And the threshold cycle numbers were obtained using BioRad CFX Manager Software. The primers used for RT-PCR reaction were shown in Table 1. β-actin was used as an internal control. The RT-PCR reactions were triplicated and the relative expression of target mRNA was normalized by the respective β-actin.

Experiment [1] concerns NF-κB signalling pathway in the lung of LPS-induced ALI mice. As to the kind of experiment: Western blotting of NF-κB signalling pathway, lung tissue of ALI mice. Format: in vivo, Balb/c mice. Particulars: CT-NA 10 mg/kg or 30 mg/kg. The protocol:
(§1) Specific pathogen-free (SPF) Balb/c mice (♂/♀; 20-26 g; 8 weeks old) were purchased from Shanghai SIPPR-BK Experimental Animal Co., Ltd. Mice were kept in an isolated ventilated cage in an environment of 40-60% humidity, 24±2° C., and 12 hrs/12 hrs dark-light cycle, and had free access to food and water. The method for preparing the LPS-induced ALI model was simply described as follows. The mice were randomly divided into a control group (12 mice) and an LPS group (48 mice). The LPS group (48 mice) was further divided into four subgroups (12 mice in each subgroup). The unanaesthetized mice in the four subgroups of LPS were intragastrically administered with normal saline (NS), CT-NA at 10 mg/kg or 30 mg/kg, and Dex at 1 mg/kg, respectively. One hour later, the mice were anesthetized with sodium pentobarbital (intraperitoneal injection at 40 mg/kg), and then subjected to intratracheal instillation of NS to control group and LPS (4 mg/kg) to all LPS subgroups. 12 hrs later, the unanaesthetized mice of the LPS group were intragastrically administered with NS, CT-NA at 10 mg/kg or 30 mg/kg, or Dex at 1 mg/kg, respectively (FIG. 16). […] 24 hrs after LPS challenge, the oxygen saturation (SO2) of all mice was measured by a Moor VMS-OXY™ instrument which measured SO2 (%) in the microcirculation at the wavelength range of 500 to 650 nm. […]

For a further experiment, the system named is LPS-induced ALI mice. As to the kind of experiment: LPS-induced ALI model: pro-inflammatory cytokines and chemokines in BALF by ELISA. Type of experiment: in vivo, Balb/c mice. Particulars: CT-NA 10 or 30 mg/kg, Dex 1 mg/kg, dose-dependent, P<0.05 or P<0.01. Here is the method: as §1, with “respectively.” for “respectively. One hour later, the mice were anesthetized with sodium pentobarbital (intraperitoneal injection at 40 mg/kg), and then subjected to intratracheal instillation of NS to control group and LPS (4 mg/kg) to all LPS subgroups. 12 hrs later, the unanaesthetized mice of the LPS group were intragastrically administered with NS, CT-NA at 10 mg/kg or 30 mg/kg, or Dex at 1 mg/kg, respectively (FIG. 16).”
The expression levels of pro-inflammatory cytokines (TNF-α, IL-1β, IL-6), and chemokines (KC, mouse IL-8 homolog) in the BALF supernatant were determined by using respective ELISA determination kits according to the instruction manual. After measurements of the optical density at 450 nm, the expression level was calculated via the standard curves.
(In an ELISA, binding on a coated surface is turned into a signal by an enzyme label.)

Take `CN([C@@H]1CCc2c(CC(=O)[O-])c3cccnc3n2C1)S(=O)(=O)c1ccc(F)cc1.[Na+]` [Sodium salt hydrate]: the “protein levels of IL-1β, IL-6, TNF-α and KC, CSE-stimulated” value in the experiment on RAW 264.7 macrophages (1 h pretreatment, CSE (4%) 24 hrs) was “inhibited”. In addition, the “protein levels of IL-1β, IL-6, TNF-α and KC, PGD2-stimulated” value in the experiment on RAW 264.7 macrophages (1 h pretreatment, PGD2 (10 μM) 24 hrs) is on record as “inhibited”. Also, the “CSE-induced inhibition of IL-10, protein” value with RAW 264.7 macrophages (CSE (4%), dose-dependent) was “reversed”. For the same compound, the “PGD2-induced inhibition of IL-10, protein” value in the experiment with RAW 264.7 macrophages (PGD2 (10 μM), dose-dependent) is reported as “reversed”. For the same compound, the “degradation of IκBα and P65 induced by LPS” value in experiment [1] is “strongly reversed”. The “LPS-induced IκBα and P65 activation” value in experiment [1] (dose-dependent) was “reduced”. Moreover, the “production of IL-1β, TNF-α, IL-6 and KC in BALF” value in the experiment on LPS-induced ALI mice is recorded as “effectively reduced”.
